Here are results for two compounds from publication PMC4652989, “A small-molecule inhibitor suppresses the tumor-associated mitochondrial NAD(P)^+-dependent malic enzyme (ME2) and induces cellular senescence” (Oncotarget, 2015).

The structures appear in SMILES notation. Like-named read-outs stand apart in the source and are kept apart here.

One experiment deals with T1, m-NAD(P)-ME Q51A/E90A (Homo sapiens, UniProt P23368, E90A/Q51A).
T1 construct: made in house; host or cells: Escherichia coli BL21
Briefly: malic enzyme activity inhibition, dimer interface mutant. Format: biochemical. As to conditions: Q51A/E90A pre-incubated with 40 μM EA. On the procedure: (§1) The malic enzyme reaction was assayed in a reaction buffer containing 50 mM Tris-HCl (pH 7.4) with saturated concentrations of L-malate, NAD^+ or NADP^+ and MgCl2, with various concentrations of EA in a total volume of 1 ml at 30°C. The absorbance at 340 nm was continuously monitored in a UV/VIS spectrophotometer Lambda 25 (Perkin Elmer, MA, USA). In this process, one unit of enzyme was defined as the amount of enzyme that produces 1 μmol of NAD(P)H per min under the assay conditions. An absorption coefficient of 6.22 cm^−1mM^−1 for NAD(P)H was used in the calculations.
(§2) The inhibition experiments were conducted with a series of EA concentrations in a buffer containing 50 mM Tris-HCl (pH 7.4), 40 mM malate (pH 7.4), 10 mM MgCl2 and 2 mM NAD^+ (pH 7.4).

Another experiment deals with T2, m-NAD(P)-ME E59N (Homo sapiens, UniProt P23368, E59N).
T2 construct: made in house; host or cells: Escherichia coli BL21
As to the kind of experiment: malic enzyme activity inhibition, fumarate site mutant. Particulars: E59N pre-incubated with 40 μM EA. Type of experiment: biochemical. On the procedure: as §1, §2

Another experiment addresses T3, m-NAD(P)-ME R91A (Homo sapiens, UniProt P23368, R91A).
T3 construct: made in house; host or cells: Escherichia coli BL21
The description is as above. Format: biochemical. Particulars: R91A pre-incubated with 40 μM EA. Here is the method:
as §1, §2

Experiment [1] concerns H1299 cells. Format: cell-based, human. As to conditions: for H1299 cell number / decrease of H1299 cell number compared with the control: 24 h; for H1299 cell growth, time course: within 48 h. On the procedure: H1299 cells were grown in 90% Dulbecco's Modified Eagle Medium (DMEM) with 10% fetal bovine serum (FBS) (Gibco BRL, USA) at a temperature of 37°C in a humidified 5% CO2 environment. Cells were seeded in 6-well cell culture dishes in triplicate at a density of 1 × 10^5 cells/ml medium containing 10% FBS and treated with EA or siRNA at the indicated dosage. The cells were then counted, and cell numbers were determined at the indicated time points. The control shLuc and ME2 shRNA were purchased from the Nature RNAi Core Facility, Taipei, Taiwan (NRC). The shME2 was made using pLKO 005 (TRC2 vector). The target shRNA sequence for ME2 is 5′-[…]-3′, and the target shRNA sequence for luciferase is 5′-[…]-3′.

In experiment [2] the test system is H1299 cells. As to the kind of experiment: senescence-associated β-galactosidase (SA-β-gal) assay. Type of experiment: cell-based, human. On the procedure:
Cells were washed in PBS, fixed for 4 min at room temperature in approximately 2 to 3% formaldehyde or 0.2% glutaraldehyde, washed, and then incubated at 37°C under no C0_2 conditions with fresh SA-β-Gal stain solution. Cells were stained with 5-bromo-4-chloro-3-indolyl β-D-galactoside (X-Gal) for 2 to 16 h and detected using the senescence-associated β-galactosidase (SA-β-gal) assay. The percentages of SA-β-gal^+ cells were calculated by the number of positively stained cells per 1,000 cells counted in random fields.

In experiment [3] the test system is m-NAD(P)-ME protein expression in H1299 cells. As to the kind of experiment: immunoblotting of m-NAD(P)-ME in H1299 cells. Format: cell-based, human. As to conditions: various concentrations of EA, within 24 h, Western blot. On the procedure:
The supernatants were boiled in loading buffer, and an aliquot containing 100 μg of protein was separated by SDS-PAGE. After blotting, the PVDF membranes were incubated with anti-human m-NAD(P)-ME (ME2) (Sigma, St Louis, MO) and anti-β-actin antibodies (Santa Cruz) for 6 h, and membranes were then incubated for 1 h with the second antibody labeled with horseradish peroxidase. The antigen-antibody complexes were visualized using enhanced chemiluminescence (Amersham Pharmacia Biotech, USA).
For orientation: A western blot detects proteins with antibodies after separation by electrophoresis.

In experiment [4] the test system is m-NAD(P)-ME mRNA in H1299 cells. As to the kind of experiment: RT-PCR of ME2 in H1299 cells. Format: cell-based, human. Particulars: EA for 12 h. On the procedure:
Total RNA was isolated from H1299 cells treated with shME2 or EA for 12 h by using a total RNA reagent (MDBio, Inc., Taiwan). One microgram of RNA was reverse transcribed into cDNA using MMLV reverse transcriptase (Epicentre Biotechnologies, USA). PCR was performed in the linear range (by 25 cycles) with primers specific for ME2 and actin. The primer sequences used to amplify the target genes were as follows: ME2 forward primer, 5′-[…]-3′; ME2 reverse primer, 5′-[…]-3′; actin forward primer, 5′-[…]-3′, and reverse primer, 5′-[…]-3′.

T3 sequence (P23368 19-584 R91A): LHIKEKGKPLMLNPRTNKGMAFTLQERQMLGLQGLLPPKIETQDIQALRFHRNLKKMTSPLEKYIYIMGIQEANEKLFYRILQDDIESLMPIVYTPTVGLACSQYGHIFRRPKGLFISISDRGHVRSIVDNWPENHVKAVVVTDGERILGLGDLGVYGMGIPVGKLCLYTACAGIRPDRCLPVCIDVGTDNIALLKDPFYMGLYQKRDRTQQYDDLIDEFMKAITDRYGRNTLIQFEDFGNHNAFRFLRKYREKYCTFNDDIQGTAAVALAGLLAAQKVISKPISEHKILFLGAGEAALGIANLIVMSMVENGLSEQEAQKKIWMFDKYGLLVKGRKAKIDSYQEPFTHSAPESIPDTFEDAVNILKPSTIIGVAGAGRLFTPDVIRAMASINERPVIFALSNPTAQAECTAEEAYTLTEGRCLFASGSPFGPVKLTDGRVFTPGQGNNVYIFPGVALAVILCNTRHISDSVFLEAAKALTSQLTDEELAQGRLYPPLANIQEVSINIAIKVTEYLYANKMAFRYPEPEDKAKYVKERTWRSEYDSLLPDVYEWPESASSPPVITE
T1 sequence (P23368 19-584 Q51A/E90A): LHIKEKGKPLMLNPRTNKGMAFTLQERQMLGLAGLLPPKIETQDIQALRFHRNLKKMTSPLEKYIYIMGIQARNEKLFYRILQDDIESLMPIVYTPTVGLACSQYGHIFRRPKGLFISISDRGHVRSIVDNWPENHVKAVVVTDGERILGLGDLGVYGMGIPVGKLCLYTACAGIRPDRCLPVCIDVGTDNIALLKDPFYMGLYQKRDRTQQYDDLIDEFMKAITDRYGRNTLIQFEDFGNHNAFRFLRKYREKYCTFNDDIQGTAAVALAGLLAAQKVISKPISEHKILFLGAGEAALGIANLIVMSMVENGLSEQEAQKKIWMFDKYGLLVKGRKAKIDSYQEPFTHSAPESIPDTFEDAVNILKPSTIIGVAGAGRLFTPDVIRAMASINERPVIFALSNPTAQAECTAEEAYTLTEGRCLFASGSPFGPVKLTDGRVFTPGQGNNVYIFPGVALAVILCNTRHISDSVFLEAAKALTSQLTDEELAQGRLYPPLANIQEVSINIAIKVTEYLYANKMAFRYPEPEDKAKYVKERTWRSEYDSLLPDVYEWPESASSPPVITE
T2 sequence (P23368 19-584 E59N): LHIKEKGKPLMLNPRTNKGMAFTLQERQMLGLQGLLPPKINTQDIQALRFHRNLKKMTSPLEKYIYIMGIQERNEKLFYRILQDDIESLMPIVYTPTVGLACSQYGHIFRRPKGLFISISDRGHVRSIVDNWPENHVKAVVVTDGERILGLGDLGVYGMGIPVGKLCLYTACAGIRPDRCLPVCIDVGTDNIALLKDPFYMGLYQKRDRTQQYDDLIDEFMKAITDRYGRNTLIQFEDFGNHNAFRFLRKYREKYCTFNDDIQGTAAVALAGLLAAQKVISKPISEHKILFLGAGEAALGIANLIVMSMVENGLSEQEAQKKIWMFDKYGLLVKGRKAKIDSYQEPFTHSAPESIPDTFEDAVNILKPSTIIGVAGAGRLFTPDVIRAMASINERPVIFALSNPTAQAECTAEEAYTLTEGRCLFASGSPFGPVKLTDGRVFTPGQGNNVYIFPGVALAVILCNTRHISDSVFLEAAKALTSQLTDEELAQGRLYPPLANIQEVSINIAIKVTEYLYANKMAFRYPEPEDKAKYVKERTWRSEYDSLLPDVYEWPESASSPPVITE

For the compound `O=C(O)/C=C/C(=O)O` [fumarate], the “restoration of EA-inhibited enzyme activity by fumarate” value on m-NAD(P)-ME Q51A/E90A, on m-NAD(P)-ME E59N and on m-NAD(P)-ME R91A was “could not be restored” in each case.
As to `O=C(O)c1cc2ccccc2c(Cc2c(O)c(C(=O)O)cc3ccccc23)c1O` [Embonic acid, embonic acid], the H1299 cell number entry in the experiment with H1299 cells [1] (5 nM EA) and in the experiment on H1299 cells [1] (10 nM EA) was “did not decrease” each time. Also, the “decrease of H1299 cell number compared with the control” value in the experiment on H1299 cells [1] (100 nM EA) was determined as 23%; with H1299 cells [1] (1 μM EA) it was 30%; in the experiment on H1299 cells [1] (10 μM EA) it was 40%. Moreover, the “H1299 cell growth, time course” value in the experiment on H1299 cells [1] (1 μM EA) is on record as “inhibited H1299 cell growth”; with H1299 cells [1] (10 μM EA, vs 1 μM) it was “more pronounced”. In addition, the “number of SA-β-gal+ H1299 cells” value in the experiment with H1299 cells [2] (1 μM EA, 0-72 h) is “increased in a time-dependent manner”. The “EA-induced H1299 cell senescence” value in the experiment with H1299 cells [2] (10 μM EA, within 72 h, vs 1 μM) was “more prominent”. Moreover, the “amount of senescence after 10 μM EA relative to 1 μM EA” value in the experiment on H1299 cells [2] (time course 0-72 h, SA-β-gal+ cells) is on record as 2 fold. For the same compound, in experiment [3], the “protein expression of m-NAD(P)-ME in H1299 cells” value is given as “not influenced”. In addition, the “mRNA synthesis of m-NAD(P)-ME in H1299 cells” value in experiment [4] is “not influenced”.
